Measured values as given in publication PMC10467532, “Design, synthesis, and biological evaluation of thiazole/thiadiazole carboxamide scaffold-based derivatives as potential c-Met kinase inhibitors for cancer treatment” (Journal of Enzyme Inhibition and Medicinal Chemistry, 2023).

Legend:
[1] = molecular target: T1, c-Met M1250T (Homo sapiens, UniProt P08581, M1250T); assay: Tyrosine kinase HTRF assay, c-Met M1250T; assay type: biochemical
T1 construct: purchased Invitrogen (Waltham, MA)
Method: (§1) On the other hand, comprehensive understanding the off-target kinase inhibition is critical for any kinase inhibitors, particularly to help explain the correlations between efficacy and potential side effects. […] The reactions were quenched by addition 10 µL mixed detection solution. […] The inhibition rate (%) was calculated using the following equation: inhibition rate = [(activity of enzyme with tested compound – min)/(max – min)] × 100 (max: the enzyme activity in the presence of enzyme, substrates and cofactors; min: the enzyme activity in the presence of substrates, cofactors and in the absence of enzyme). IC50 value was calculated from the inhibition curve using GraphPad Prism 5.0 software (La Jolla, CA).

[2] = system: c-Met phosphorylation in MKN-45 cells; assay: Western blotting analysis of c-Met phosphorylation; assay type: cell-based, human; settings: 24 h, 0, 2.5, 5.0, and 10.0 μM
Method: To obtain further insight into the mechanism of 51am induced apoptosis, western blot assay was carried out to investigate the effect of 51am on the phosphorylation of c-Met in living cells. MKN-45 cells were treated with 51am for 24 h in a series of concentrations (0, 2.5, 5.0, and 10.0 μM) using DMSO as the negative control, and the level of GAPDH served as the loading control.
MKN-45 cells were incubated with the test compound at various concentrations for 24 h. After incubation, cells were harvested in PBS solution containing proteinase inhibitors and phosphatase inhibitors, and then sonicated. Whole cell lysates were separated by sodium dodecyl sulphate-polyacrylamide gel electrophoresis (SDS-PAGE) and transferred to nitrocellulose membrane (Beyotime Biotechnology, Shanghai, China). The membrane was incubated with primary antibody followed by labelling with horseradish peroxidase (HRP)-conjugated secondary antibody (Beyotime Biotechnology, Shanghai, China). The blots were developed with enhanced chemiluminescence and visualised by an LAS4000 imager (Fuji Photo Film, Minato City, Japan).

[3] = molecular target: T2, c-Met Y1230H (Homo sapiens, UniProt P08581, Y1230H); assay: Tyrosine kinase HTRF assay, c-Met Y1230H; assay type: biochemical
T2 construct: purchased Invitrogen (Waltham, MA)
Method: as §1

[4] = system: A549; assay: MTT antiproliferative assay, A549; settings: Homo sapiens, A549, 48 h, read-out: IC50 A549
Method: (§2) MTT assay was used to determine the cytotoxic activity of target compounds against different cell lines. […] Then, the cells were treated with five doses of test compounds (pre-dissolved in DMSO), and 0.1% DMSO was used as a negative control. […] The results expressed as IC50 were the average of three determinations calculated by using the Bacus Laboratories Incorporated Slide Scanner (Bliss) software.

[5] = system: MKN-45; assay: MTT antiproliferative assay, MKN-45; settings: Homo sapiens, MKN-45, 48 h, read-out: IC50 MKN-45
Method: as §2

[6] = molecular target: T3, c-Met H1094R (Homo sapiens, UniProt P08581, H1094R); assay: Tyrosine kinase HTRF assay, c-Met H1094R; assay type: biochemical
T3 construct: purchased Invitrogen (Waltham, MA)
Method: as §1

[7] = molecular target: T4, VEGFR-2 (Homo sapiens, UniProt P35968); assay: Tyrosine kinase HTRF assay, VEGFR-2; assay type: biochemical
T4 construct: purchased Invitrogen (Waltham, MA)
Method: as §1

[8] = molecular target: T5, Flt-3 (Homo sapiens, UniProt P36888); assay: Tyrosine kinase HTRF assay, Flt-3; assay type: biochemical
T5 construct: purchased Invitrogen (Waltham, MA)
Method: as §1

[9] = molecular target: T6, Flt-4 (Homo sapiens, UniProt P35916); assay: Tyrosine kinase HTRF assay, Flt-4; assay type: biochemical
T6 construct: purchased Invitrogen (Waltham, MA)
T6 sequence (P35916 25-1363): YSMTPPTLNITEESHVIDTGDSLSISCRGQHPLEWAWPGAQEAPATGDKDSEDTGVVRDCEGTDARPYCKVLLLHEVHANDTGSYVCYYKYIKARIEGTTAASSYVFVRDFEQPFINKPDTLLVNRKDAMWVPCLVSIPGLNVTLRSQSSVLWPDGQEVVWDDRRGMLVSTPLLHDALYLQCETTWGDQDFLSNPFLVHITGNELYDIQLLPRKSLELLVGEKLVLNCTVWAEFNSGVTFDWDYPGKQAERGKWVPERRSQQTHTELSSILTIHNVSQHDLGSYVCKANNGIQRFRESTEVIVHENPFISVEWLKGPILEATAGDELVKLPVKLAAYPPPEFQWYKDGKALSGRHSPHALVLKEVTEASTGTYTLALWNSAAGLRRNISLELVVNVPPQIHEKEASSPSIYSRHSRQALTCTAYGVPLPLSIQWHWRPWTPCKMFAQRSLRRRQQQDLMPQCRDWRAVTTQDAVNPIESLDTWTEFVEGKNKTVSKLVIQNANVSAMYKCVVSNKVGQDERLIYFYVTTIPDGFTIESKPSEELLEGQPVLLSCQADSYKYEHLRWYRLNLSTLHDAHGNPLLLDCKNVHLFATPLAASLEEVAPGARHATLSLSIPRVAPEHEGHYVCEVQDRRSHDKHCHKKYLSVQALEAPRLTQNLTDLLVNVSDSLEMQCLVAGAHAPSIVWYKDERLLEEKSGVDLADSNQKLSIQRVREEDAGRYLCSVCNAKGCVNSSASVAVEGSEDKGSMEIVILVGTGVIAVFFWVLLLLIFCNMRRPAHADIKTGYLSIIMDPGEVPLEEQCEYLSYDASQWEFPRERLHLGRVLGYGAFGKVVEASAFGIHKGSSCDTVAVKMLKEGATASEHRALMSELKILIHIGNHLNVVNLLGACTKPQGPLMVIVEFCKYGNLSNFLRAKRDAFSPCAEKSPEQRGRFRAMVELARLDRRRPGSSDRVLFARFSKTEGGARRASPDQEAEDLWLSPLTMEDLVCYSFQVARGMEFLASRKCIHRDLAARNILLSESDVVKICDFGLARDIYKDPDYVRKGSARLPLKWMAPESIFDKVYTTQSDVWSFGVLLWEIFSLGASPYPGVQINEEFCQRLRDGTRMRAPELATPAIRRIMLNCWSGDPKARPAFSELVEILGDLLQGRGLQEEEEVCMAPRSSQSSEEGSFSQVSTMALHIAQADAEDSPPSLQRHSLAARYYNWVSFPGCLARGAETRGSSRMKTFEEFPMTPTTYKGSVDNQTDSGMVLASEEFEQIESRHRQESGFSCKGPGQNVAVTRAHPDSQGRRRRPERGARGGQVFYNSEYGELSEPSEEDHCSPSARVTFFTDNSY
Method: as §1

[10] = system: FHC; assay: MTT cytotoxicity assay, normal FHC cells; settings: Homo sapiens, 48 h, read-out: IC50 FHC
Method: as §2

[11] = molecular target: T7, c-Met D1228H (Homo sapiens, UniProt P08581, D1228H); assay: Tyrosine kinase HTRF assay, c-Met D1228H; assay type: biochemical
T7 construct: purchased Invitrogen (Waltham, MA)
T7 sequence (P08581 25-1390 D1228H): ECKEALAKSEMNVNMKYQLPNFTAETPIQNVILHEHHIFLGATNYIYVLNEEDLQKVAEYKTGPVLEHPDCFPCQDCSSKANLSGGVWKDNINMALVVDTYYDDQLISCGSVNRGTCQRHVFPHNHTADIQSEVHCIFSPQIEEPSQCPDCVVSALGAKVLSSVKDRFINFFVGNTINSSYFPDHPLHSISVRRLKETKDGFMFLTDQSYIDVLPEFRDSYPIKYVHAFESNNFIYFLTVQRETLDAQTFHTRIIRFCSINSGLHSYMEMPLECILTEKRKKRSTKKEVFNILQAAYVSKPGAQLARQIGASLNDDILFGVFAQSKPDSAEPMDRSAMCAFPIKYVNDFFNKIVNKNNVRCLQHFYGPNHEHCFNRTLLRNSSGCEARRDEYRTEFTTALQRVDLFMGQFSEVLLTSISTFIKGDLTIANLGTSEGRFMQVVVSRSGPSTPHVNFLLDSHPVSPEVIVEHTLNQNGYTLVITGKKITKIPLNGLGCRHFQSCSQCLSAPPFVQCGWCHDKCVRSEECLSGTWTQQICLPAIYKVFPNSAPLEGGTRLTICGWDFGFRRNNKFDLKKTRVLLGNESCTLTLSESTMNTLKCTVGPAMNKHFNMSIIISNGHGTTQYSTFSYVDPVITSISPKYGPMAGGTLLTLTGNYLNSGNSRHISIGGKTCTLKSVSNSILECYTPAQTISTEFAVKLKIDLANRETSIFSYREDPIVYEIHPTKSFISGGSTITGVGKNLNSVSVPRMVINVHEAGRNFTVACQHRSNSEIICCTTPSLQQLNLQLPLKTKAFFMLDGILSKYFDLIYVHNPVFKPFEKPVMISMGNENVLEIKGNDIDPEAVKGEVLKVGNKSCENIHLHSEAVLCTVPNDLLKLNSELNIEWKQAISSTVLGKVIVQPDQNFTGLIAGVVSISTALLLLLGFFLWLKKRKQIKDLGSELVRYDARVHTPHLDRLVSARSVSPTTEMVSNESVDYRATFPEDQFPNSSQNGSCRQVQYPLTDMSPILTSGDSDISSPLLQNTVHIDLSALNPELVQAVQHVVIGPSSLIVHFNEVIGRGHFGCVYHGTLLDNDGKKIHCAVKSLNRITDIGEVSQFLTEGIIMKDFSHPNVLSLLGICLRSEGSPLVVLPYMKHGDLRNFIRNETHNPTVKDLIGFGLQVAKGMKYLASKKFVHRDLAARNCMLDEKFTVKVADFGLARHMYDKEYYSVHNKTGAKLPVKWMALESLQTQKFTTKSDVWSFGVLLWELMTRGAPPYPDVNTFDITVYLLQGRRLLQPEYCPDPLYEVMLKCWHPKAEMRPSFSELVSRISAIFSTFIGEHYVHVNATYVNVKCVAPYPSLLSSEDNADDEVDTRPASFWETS
Method: as §1

[12] = molecular target: T8, PDGFRα (Homo sapiens, UniProt P16234); assay: Tyrosine kinase HTRF assay, PDGFRα; assay type: biochemical
T8 construct: purchased Invitrogen (Waltham, MA)
Method: as §1

[13] = Pharmacokinetic study in BALB/c mice; assay type: in vivo; settings: male, mouse, plasma
Method: Identification of drugs with an acceptable balance of potency, physical properties, and pharmacokinetics (PK) has always been a challenge that often hinders evaluation of the compounds in xenograft models and therapeutic use in clinical practice. Therefore, the PK profile of compound 51am was evaluated in BALB/c mice after intravenous (i.v.) injection and oral administration (p.o.) because of its excellent in vitro activity. […] Based on the good overall PK profile, 51am could be a potential candidate for cancer therapy.
The experimental procedures and the animal use and care protocols were approved by the Committee on Ethical Use of Animals of Shenzhen Second People’s Hospital. Each male BALB/c mice received a single compound 51am as a solution in PEG 400/water (70:30) by either oral route (10 mg/kg) or i.v. route (1.5 mg/kg). Blood samples were collected into the microcentrifuge tube containing heparin at time points 0 (prior to dosing) 5, 10, 20, 30, 60, 180, 360, 480, 600, 720, 1080, and 1440 min after dosing. The blood samples were centrifuged; the obtained plasma was separated and stored at –20 °C. All samples for 51am were measured by liquid chromatography–tandem mass spectrometry (LC/MS/MS).

[14] = molecular target: T9, Ron (Homo sapiens, UniProt Q04912); assay: Tyrosine kinase HTRF assay, Ron; assay type: biochemical
T9 construct: purchased Invitrogen (Waltham, MA)
Method: as §1

[15] = molecular target: T10, c-kit (Homo sapiens, UniProt P10721); assay: Tyrosine kinase HTRF assay, c-kit; assay type: biochemical
T10 construct: purchased Invitrogen (Waltham, MA)
T10 sequence (P10721 26-976): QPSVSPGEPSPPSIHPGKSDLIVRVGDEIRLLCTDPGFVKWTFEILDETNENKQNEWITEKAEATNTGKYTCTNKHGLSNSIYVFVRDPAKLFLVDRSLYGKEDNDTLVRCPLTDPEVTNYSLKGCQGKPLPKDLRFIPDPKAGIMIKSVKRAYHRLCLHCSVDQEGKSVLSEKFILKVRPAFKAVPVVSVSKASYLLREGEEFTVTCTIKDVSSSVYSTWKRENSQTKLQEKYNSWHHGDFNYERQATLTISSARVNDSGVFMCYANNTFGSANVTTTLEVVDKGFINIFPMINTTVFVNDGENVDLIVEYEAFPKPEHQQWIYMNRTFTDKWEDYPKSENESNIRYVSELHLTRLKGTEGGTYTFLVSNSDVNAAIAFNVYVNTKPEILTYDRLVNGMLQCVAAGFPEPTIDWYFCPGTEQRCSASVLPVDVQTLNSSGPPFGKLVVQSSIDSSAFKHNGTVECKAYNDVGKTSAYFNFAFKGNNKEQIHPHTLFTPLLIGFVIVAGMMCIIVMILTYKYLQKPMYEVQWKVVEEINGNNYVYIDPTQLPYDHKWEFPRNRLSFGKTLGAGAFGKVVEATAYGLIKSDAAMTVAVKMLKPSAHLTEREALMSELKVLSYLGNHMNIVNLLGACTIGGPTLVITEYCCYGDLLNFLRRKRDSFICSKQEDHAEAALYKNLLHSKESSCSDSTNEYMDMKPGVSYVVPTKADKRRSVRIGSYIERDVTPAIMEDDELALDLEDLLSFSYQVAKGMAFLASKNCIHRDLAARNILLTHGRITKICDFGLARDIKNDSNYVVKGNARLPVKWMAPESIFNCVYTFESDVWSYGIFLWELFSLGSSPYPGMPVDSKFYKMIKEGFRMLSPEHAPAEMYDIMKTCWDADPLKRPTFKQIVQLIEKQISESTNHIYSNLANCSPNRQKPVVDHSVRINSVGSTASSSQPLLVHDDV
Method: as §1

[16] = molecular target: T11, PDGFRβ (Homo sapiens, UniProt P09619); assay: Tyrosine kinase HTRF assay, PDGFRβ; assay type: biochemical
T11 construct: purchased Invitrogen (Waltham, MA)
Method: as §1

[17] = molecular target: T12, c-Met (Homo sapiens, UniProt P08581); assay: In vitro c-Met enzymatic assay (HTRF); assay type: biochemical; settings: HTRF assay; mean ± SD, triplicate; read-out: IC50 against c-Met
T12 construct: purchased Invitrogen (Waltham, MA)

[18] = system: HUVEC; assay: MTT cytotoxicity assay, normal HUVEC cells; settings: Homo sapiens, 48 h, read-out: IC50 HUVEC
Method: as §2

[19] = molecular target: T13, c-Met Y1235D (Homo sapiens, UniProt P08581, Y1235D); assay: Tyrosine kinase HTRF assay, c-Met Y1235D; assay type: biochemical
T13 construct: purchased Invitrogen (Waltham, MA)
T13 sequence (P08581 25-1390 Y1235D): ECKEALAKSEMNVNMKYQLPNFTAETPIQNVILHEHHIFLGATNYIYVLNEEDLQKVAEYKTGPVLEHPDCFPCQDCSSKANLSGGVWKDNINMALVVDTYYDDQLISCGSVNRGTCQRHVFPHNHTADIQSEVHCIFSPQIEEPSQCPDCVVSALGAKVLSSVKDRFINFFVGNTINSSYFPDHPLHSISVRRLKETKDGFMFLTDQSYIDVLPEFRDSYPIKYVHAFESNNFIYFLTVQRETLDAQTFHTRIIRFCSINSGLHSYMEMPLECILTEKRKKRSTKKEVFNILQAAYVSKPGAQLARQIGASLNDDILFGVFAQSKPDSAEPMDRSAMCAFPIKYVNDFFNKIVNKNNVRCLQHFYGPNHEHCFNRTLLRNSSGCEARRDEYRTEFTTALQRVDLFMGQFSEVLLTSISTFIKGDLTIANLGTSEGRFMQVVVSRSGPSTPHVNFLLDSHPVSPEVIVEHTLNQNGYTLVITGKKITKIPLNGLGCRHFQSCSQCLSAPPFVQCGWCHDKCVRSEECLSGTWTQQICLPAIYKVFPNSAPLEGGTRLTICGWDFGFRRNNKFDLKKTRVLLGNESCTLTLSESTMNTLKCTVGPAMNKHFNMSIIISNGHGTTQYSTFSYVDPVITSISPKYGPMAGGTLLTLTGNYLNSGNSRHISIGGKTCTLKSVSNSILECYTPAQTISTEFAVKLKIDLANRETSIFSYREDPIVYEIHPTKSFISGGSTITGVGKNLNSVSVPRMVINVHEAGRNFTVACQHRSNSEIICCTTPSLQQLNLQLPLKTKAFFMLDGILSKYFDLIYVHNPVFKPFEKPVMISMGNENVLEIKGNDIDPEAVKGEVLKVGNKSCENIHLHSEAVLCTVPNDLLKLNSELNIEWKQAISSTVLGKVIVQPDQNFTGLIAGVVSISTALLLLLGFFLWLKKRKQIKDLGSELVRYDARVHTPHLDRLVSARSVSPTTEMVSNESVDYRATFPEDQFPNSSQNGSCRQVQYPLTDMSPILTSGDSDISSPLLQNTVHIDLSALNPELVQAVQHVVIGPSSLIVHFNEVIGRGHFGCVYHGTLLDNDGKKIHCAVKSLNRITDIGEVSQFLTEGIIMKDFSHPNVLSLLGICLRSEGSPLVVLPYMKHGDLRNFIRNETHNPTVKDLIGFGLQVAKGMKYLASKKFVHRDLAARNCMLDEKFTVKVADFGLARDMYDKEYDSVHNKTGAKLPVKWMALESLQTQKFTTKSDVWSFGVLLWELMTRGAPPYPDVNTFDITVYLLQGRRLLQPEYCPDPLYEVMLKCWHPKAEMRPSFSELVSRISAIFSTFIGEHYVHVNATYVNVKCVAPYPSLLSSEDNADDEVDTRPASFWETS
Method: as §1

[20] = molecular target: T14, EGFR (Homo sapiens, UniProt P00533); assay: Tyrosine kinase HTRF assay, EGFR; assay type: biochemical
T14 construct: purchased Invitrogen (Waltham, MA)
Method: as §1

[21] = system: HT-29; assay: MTT antiproliferative assay, HT-29; settings: Homo sapiens, HT-29, 48 h, read-out: IC50 HT-29
Method: as §2

[22] = system: MDA-MB-231; assay: MTT antiproliferative assay, MDA-MB-231; settings: Homo sapiens, MDA-MB-231, 48 h, read-out: IC50 MDA-MB-231
Method: as §2

[23] = system: MKN-45 cells; assay: Apoptosis by Annexin V/PI double staining, flow cytometry; settings: 24 h, control 6.02%
Method: Apoptosis was detected by an Annexin V/propidium iodide (PI) double staining kit (Beyotime Biotechnology, Shanghai, China). […] Cells were harvested by trypsinisation and washed with ice-cold PBS solution. Cells were labelled with annexin V and PI and incubated at room temperature for 30 min in the dark. The labelled cells were analysed by a FACScan flow cytometer (Becton Dickinson, Franklin Lakes, NJ).

[24] = system: PDGFRα, PDGFRβ, VEGFR-2, and Flt-4; assay: Kinase selectivity relative to c-Met; assay type: biochemical
Method: as §1

**Q.** For `O=C(Nc1ccc(Oc2ccnc(Cl)c2Cl)c(F)c1)c1nc(-c2ccc(F)c(Cl)c2)cs1` [Compound 51am, 4-(3-Chloro-4-fluorophenyl)-N-(4-((2,3-dichloropyridin-4-yl)oxy)-3-fluorophenyl)thiazole-2-carboxamide], which IC50 [1] is on record?
**A.** The IC50 was 26.5 nM.

**Q.** What about the “effect on c-Met phosphorylation (western blot)” value [2] of the same molecule?
**A.** Its value is “inhibited c-Met phosphorylation in a dose-dependent manner”.

**Q.** And the IC50 [3]?
**A.** Its IC50 is 45.8 nM.

**Q.** What about the IC50 [4] of the same molecule?
**A.** The IC50 was 830 ± 360 nM.

**Q.** And the IC50 [5]?
**A.** Its IC50 is 92 ± 6 nM.

**Q.** What about the IC50 [6] of the same molecule?
**A.** Its IC50 is 93.6 nM.

**Q.** What about the IC50 [7] of the same molecule?
**A.** The IC50 was 527 nM.

**Q.** What about the IC50 [8] of the same molecule?
**A.** The IC50 was 6.12 nM.

**Q.** And the IC50 [9]?
**A.** Its IC50 is 276 nM.

**Q.** And the IC50 [10]?
**A.** Its IC50 is 8630 ± 1520 nM.

**Q.** What about the IC50 [11] of the same molecule?
**A.** Its IC50 is 29.4 nM.

**Q.** What about the IC50 [12] of the same molecule?
**A.** Its IC50 is 425 nM.

**Q.** What about the AUC(0-inf) ([13]; iv, i.v. (1.5 mg/kg)) of the same molecule?
**A.** The AUC(0-inf) was 2500 ng·h/mL.

**Q.** And the Cmax ([13]; iv, i.v. (1.5 mg/kg))?
**A.** The Cmax was 552 ng/mL.

**Q.** What about the half-life ([13]; iv, i.v. (1.5 mg/kg)) of the same molecule?
**A.** Its half-life is 3.2 h.

**Q.** What about the clearance ([13]; iv, i.v. (1.5 mg/kg), CL = dose/AUCi.v.) of the same molecule?
**A.** The clearance was 10 mL/min/kg.

**Q.** What about the bioavailability ([13]; oral, p.o. (10 mg/kg) vs i.v. (1.5 mg/kg), read-out: F (oral bioavailability)) of the same molecule?
**A.** Its bioavailability is 69%.

**Q.** What about the AUC(0-inf) ([13]; po, p.o. (10 mg/kg)) of the same molecule?
**A.** The AUC(0-inf) was 11500 ng·h/mL.

**Q.** And the Cmax ([13]; po, p.o. (10 mg/kg))?
**A.** Its Cmax is 1760 ng/mL.

**Q.** What about the Tmax ([13]; po, p.o. (10 mg/kg)) of the same molecule?
**A.** Its Tmax is 4.1 h.

**Q.** And the half-life ([13]; po, p.o. (10 mg/kg))?
**A.** Its half-life is 5.6 h.

**Q.** What about the IC50 [14] of the same molecule?
**A.** Its IC50 is 3.83 nM.

**Q.** And the IC50 [15]?
**A.** Its IC50 is 4.94 nM.

**Q.** What about the IC50 [16] of the same molecule?
**A.** Its IC50 is 513 nM.

**Q.** And the IC50 [17]?
**A.** The IC50 was 2.54 ± 0.49 nM.

**Q.** And the IC50 [18]?
**A.** Its IC50 is 2540 ± 460 nM.

**Q.** What about the IC50 [19] of the same molecule?
**A.** The IC50 was 54.2 nM.

**Q.** What about the IC50 [20] of the same molecule?
**A.** Its IC50 is over 10000 nM.

**Q.** And the IC50 [21]?
**A.** The IC50 was 680 ± 90 nM.

**Q.** What about the IC50 [22] of the same molecule?
**A.** The IC50 was 3940 ± 1320 nM.

**Q.** And the “percentage of apoptotic cells” value ([23]; MKN-45, 0.4 μM)?
**A.** Its value is 14.74%.

**Q.** What about the “percentage of apoptotic cells” value ([23]; MKN-45, 0.8 μM) of the same molecule?
**A.** Its value is 19.83%.

**Q.** What about the “percentage of apoptotic cells” value ([23]; MKN-45, 1.2 μM) of the same molecule?
**A.** The value was 38.54%.

**Q.** What about the “fold less potent than against c-Met” value [24] of the same molecule?
**A.** The value was 108–207 fold.
